Measured values as given in ChEMBL document CHEMBL3399944, “Synthesis and anticancer cell potential of steroidal 16,17-seco-16,17a-dinitriles: identification of a selective inhibitor of hormone-independent breast cancer cells” (Bioorg Med Chem, 2015).

How the values were obtained:
MDA-MB-231 [1] = test: Induction of apoptosis in human MDA-MB-231 cells at IC50 after 48 hrs by Giemsa staining-based light microscopy (reference value: 7%); format: functional
MDA-MB-231 [2] = test: Antiproliferative activity against human MDA-MB-231 cells after 48 hrs by MTT assay; format: functional, cell-based; details: MDA-MB-231, 48 h
MCF7 [3] = test: Antiproliferative activity against human MCF7 cells after 48 hrs by MTT assay; format: functional, cell-based; details: MCF7, 48 h
MRC5 = test: Antiproliferative activity against human MRC5 cells after 48 hrs by MTT assay; format: cell-based; details: MRC5, 48 h
[4] = Antiproliferative activity against human PC3 cells after 48 hrs by MTT assay; format: functional, cell-based; details: PC-3, 48 h
HeLa = test: Antiproliferative activity against human HeLa cells after 48 hrs by MTT assay; format: functional, cell-based
MDA-MB-231 [5] = test: Antiproliferative activity against human MDA-MB-231 cells at 10 nM after 48 hrs by MTT assay; format: functional; details: MDA-MB-231, 48 h
MCF7 [6] = test: Antiproliferative activity against human MCF7 cells at 10 nM after 48 hrs by MTT assay; format: functional; details: MCF7, 48 h

## C[C@]1(CC#N)CC[C@H]2[C@@H](CC=C3C[C@@H](O)CC[C@@]32C)[C@@H]1CC#N
MDA-MB-231 [1]
  Activity: 18%
MDA-MB-231 [2]
  IC50: 34.8 µM
MCF7 [3]
  IC50: 30 µM
MRC5
  IC50: > 100 µM
[4]
  IC50: 19.1 µM
HeLa
  IC50: 2.15 µM

## C[C@]1(CC#N)CC[C@H]2[C@@H](CCC3=C(O)C(=O)CC[C@@]32C)[C@@H]1CC#N
MDA-MB-231 [1]
  Activity: 11%
MDA-MB-231 [2]
  IC50: 39.6 µM
MCF7 [3]
  IC50: 57 µM
MRC5
  IC50: > 100 µM
[4]
  IC50: 8.69 µM
HeLa
  IC50: 14.7 µM

## C[C@]12CCC(=O)C(O)=C1CC[C@@H]1[C@@H]2CC[C@]2(C)C(=O)CC[C@@H]12 [FORMESTANE]
MDA-MB-231 [1]
  Activity: 11%
MDA-MB-231 [2]
  IC50: 53.3 µM
MCF7 [3]
  IC50: > 100 µM
MRC5
  IC50: > 100 µM
[4]
  IC50: 45.6 µM
HeLa
  IC50: 1.9 µM

## C[C@]1(CC#N)CC[C@H]2[C@@H](CCC3=CC(=O)C=C[C@@]32C)[C@@H]1CC#N
MDA-MB-231 [1]
  Activity: 14.1%
MDA-MB-231 [5]
  inhibition at 0.01 µM: 69%
MCF7 [6]
  inhibition at 0.01 µM: 61%
MDA-MB-231 [2]
  IC50: 0.11 µM
MCF7 [3]
  IC50: 0.52 µM
MRC5
  IC50: > 100 µM
[4]
  IC50: 70.9 µM
HeLa
  IC50: 12.5 µM

## C[C@]1(CC#N)CC[C@H]2[C@@H](CCC3=CC(=O)CC[C@@]32C)[C@@H]1CC#N
MDA-MB-231 [1]
  Activity: 15.9%
MDA-MB-231 [2]
  IC50: 15.5 µM
MCF7 [3]
  IC50: 15 µM
MRC5
  IC50: > 100 µM
[4]
  IC50: 8.27 µM
HeLa
  IC50: 5.73 µM

## C[C@]1(CC#N)CC[C@@H]2c3ccc(O)cc3CC[C@H]2[C@@H]1CC#N
MDA-MB-231 [1]
  Activity: 11.1%
MDA-MB-231 [2]
  IC50: 3.96 µM
MCF7 [3]
  IC50: 17 µM
MRC5
  IC50: > 100 µM
[4]
  IC50: 11.2 µM
HeLa
  IC50: 7.32 µM

## COc1cccc2c1C(=O)c1c(O)c3c(c(O)c1C2=O)C[C@@](O)(C(=O)CO)C[C@@H]3O[C@H]1C[C@H](N)[C@H](O)[C@H](C)O1 [DOXORUBICIN]
MDA-MB-231 [1]
  Activity: 11%
MCF7 [3]
  IC50: 0.75 µM
[4]
  IC50: 95.6 µM
